Laboratory results as given in patent US11013740B2, “Histone deacetylase 6 selective inhibitors for the treatment of cisplatin-induced peripheral neuropathy” (REGENACY PHARMACEUTICALS, LLC, priority 2015, dated 2021).

Assays:
[1] = tested on: IENF density; assay: Intra-epidermal nerve fiber (IENF) density in hind paw biopsies; format: in vivo, mice
From the text: For quantification of IENFs, biopsies from the plantar surface of the hind paws were collected after 3 doses or 11 doses of compound 001 or vehicle and processed as described previously (Qi-Liang Mao-Ying A K, et al. The anti-diabetic drug metformin protects against chemotherapy-induced peripheral neuropathy in a mouse model. Clinical Cancer Research. 2014); Krukowski K, et al. Prevention of chemotherapy-induced peripheral neuropathy by the small-molecule inhibitor pifithrin-mu. Pain. 2015; 156(11):2184-92). In brief, biopsies were fixed in Zamboni's fixative, cryoprotected in 20% sucrose and then frozen in Optimal Cutting Temperature compound (Sakura Finetek USA, Inc., Torrance, Calif.). 25-μm frozen sections were incubated with antibodies against the pan neuronal marker PGP9.5 (Rabbit; AbD Serotec, Oxford, United Kingdom) and Collagen IV (Goat; Southern Biotech, Birmingham, Ala.) followed by Alexa-594 donkey anti-rabbit (Life Technologies, Carlsbad, Calif.) and Alexa-488 donkey anti-goat (Invitrogen, Grand Island, N.Y.). Three randomly chosen sections from each mouse were imaged and quantified under a Leica SPE confocal microscope (Leica Microsystems, Buffalo Grove, Ill.). Nerve fibers that crossed the collagen-stained dermal/epidermal junction into the epidermis were counted and IENF density was determined as the total number of fibers/length of epidermis (IENFs/mm).

[2] = tested on: cisplatin-induced mechanical hyperalgesia; assay: Von Frey test for mechanical hyperalgesia in cisplatin-treated mice; format: in vivo; conditions: for effect on existing cisplatin-induced mechanical hyperalgesia: 7 daily doses starting 3 days after last cisplatin dose
Experimental: Adult male C57/Bl6J mice received cisplatin intraperitoneally (i.p.) (2.3 mg/kg) daily for five days, followed by five days rest and a second round of five days of cisplatin treatment. Three days after the last dose of cisplatin, mice received the HDAC6 inhibitor, compound 001, a compound of Formula (I), i.p. for seven to fourteen days at 3 mg/kg or 10 mg/kg.
To quantify signs of cisplatin-induced pain, the von Frey test was used (see below) which measures the decrease in threshold to induce a withdrawal response to a mechanical stimulus (hyperalgesia, one of the characteristics of CIPN). To assess cisplatin-induced numbness, the adhesive removal test (ART) was used. The time it took for the mouse to have a behavioral response to the patch (i.e. shaking or attempted removal) was recorded as a measure of sensory deficit or numbness. To determine if behavioral changes were due to altered general activity or motor function, the locomotor activity (LMA) test and the rotarod test was used. For LMA mice were placed in an open-field testing cage and movement was measured for 5 minutes. For the rotarod, mice were trained for two days and then tested on the rotarod (with increasing speeds) for 5 minutes. Time on the rotarod was recorded.
Allodynic response to tactile stimulation is assessed using the Von Frey apparatus (Touch Test®).
The animal is placed in an enclosure and positioned on a metal mesh surface, but allowed to move freely. The animals' cabins are covered with red cellophane to diminish environmental disturbances. The test begins after a cessation of exploratory behavior. The set of Von Frey monofilaments provide an approximate logarithmic scale of actual force and a linear scale of perceived intensity.
The operating principle: when the tip of a fiber of given length and diameter is pressed against the skin at right angles, the force of application increases as long as the researcher continues to advance the probe until the fiber bends. After the fiber bends, the probe continues to advance, causing the fiber to bend more, but without additional force being applied.
The Touch Test™ Sensory Evaluator can be used on the plantar surfaces of the rat's foot. The animal indicates sensation by pulling back its paw. The minimal force needed to elevate the withdrawal reflex is considered/designated as the value of reference. In order to achieve paw withdrawal, the pressure applied is sometimes greater than 60 g, often requiring the researcher to apply enough pressure with the Von Frey filament to actually lift the paw of the naive animal. Decreases in force needed to induce withdrawal are indicative of hyperalgesia, as the force applied is a non-painful stimulus under normal conditions.
Cisplatin (TEVA Pharmaceuticals, North Wales, Pa.) was diluted in sterile saline and administered intraperitoneally (i.p.) at a dose of 2.3 mg/kg daily for 5 days, followed by 5 days of rest, and a second round of 5 doses for a total cumulative dose of 23 mg/kg cisplatin. It was shown that this dosing schedule induces mechanical hyperalgesia in mice (Qi-Liang Mao-Ying A K, et al. The anti-diabetic drug metformin protects against chemotherapy-induced peripheral neuropathy in a mouse model. Clinical Cancer Research. 2014; Krukowski K, et al. Prevention of chemotherapy-induced peripheral neuropathy by the small-molecule inhibitor pifithrin-mu. Pain. 2015; 156(11):2184-92). HDAC6 inhibitor, compound 001, (Acetylon Pharmaceuticals, Boston, Mass.) was dissolved in 20% 2-hydroxypropyl-β-cyclodextrin+0.5% hydroxypropyl methylcellulose (Sigma-Aldrich, St. Louis, Mo.) in water and administered i.p. at a dose of 10 mg/kg or 3 mg/kg. […]

[3] = tested on: mitochondrial respiration in tibial nerves; assay: Mitochondrial bioenergetics analysis of tibial nerves (XF24); format: in vivo, mice
Experimental: Tibial nerves were collected on experimental day 30, when the mice have received 2 rounds of cisplatin treatment and 11 injections of compound 001. Tissues were placed into islet capture XF24 microplate (Seahorse Bioscience, North Billerica, Mass.) in XF media with the addition of 5.5 mM glucose, 0.5 mM sodium pyruvate and 1 mM glutamine. Oligomycin (12 μM), FCCP (Carbonyl cyanide 4-(trifluoromethoxy)phenylhydrazone, 20 μM), and Rotenone/Antimycin A (20 μM each) (Sigma-Aldrich, St. Louis, Mo.) were injected sequentially during the assay. An assay cycle with a combination of 3-min mix, 3-min wait, and 4-min measure was repeated 4 times for baseline rates and after each port injection. After the respiratory measures, tissues were harvested and the oxygen consumption rate (OCR) values were normalized to the total protein content of each well. Basal respiration, ATP-linked respiration, proton leak, and maximal respiratory capacity were determined as described previously (Brand M D, and Nicholls D G. Assessing mitochondrial dysfunction in cells. The Biochemical journal. 2011; 435(2):297-312; Ma J, et al. Heat shock protein 70 is necessary to improve mitochondrial bioenergetics and reverse diabetic sensory neuropathy following KU-32 therapy. The Journal of pharmacology and experimental therapeutics. 2014; 348(2):281-92). Briefly, the initial measurements provide a measure of the basal OCR in the absence of respiratory chain poisons. The amount of basal OCR that is coupled to ATP production was determined by addition of the ATP synthase inhibitor oligomycin, which decreased the basal OCR. […] Next, maximal respiratory capacity (MRC) was assessed by addition of the protonophore FCCP, which dissipates the mitochondrial membrane potential and promotes maximal OCR. Lastly, non-mitochondrial respiration was determined by the addition of rotenone and antimycin A, which inhibit the activities of mitochondrial respiratory chain complex I and complex III respectively.

[4] = 2 rounds of cisplatin and 11 injections of compound

## O=C(NO)c1cnc(NC2(c3ccccc3)CCC(F)(F)CC2)nc1 [compound 001]
[1]; 2 cycles of cisplatin and 11 doses of compound
  IENF density, prolonged regimen: completely reversed the cisplatin-induced loss of IENFs
[1]; cisplatin-treated mice, short-term treatment (3 doses)
  IENF density, short-term treatment: did not have any effect on IENF density
[2]; 3 mg/kg i.p.
  effect on existing cisplatin-induced mechanical hyperalgesia: did not
[2]; 10 mg/kg for two consecutive weeks starting 3 days after last cisplatin dose
  effect of prolonged treatment on mechanical hyperalgesia: complete and sustained recovery from mechanical hyperalgesia
[2]; 10 mg/kg for two consecutive weeks, followed to experiment termination
  duration of beneficial effect of prolonged regimen: maintained until at least one month after the last dose
[2]; 10 mg/kg i.p.
  effect on existing cisplatin-induced mechanical hyperalgesia: effectively relieved cisplatin-induced mechanical hyperalgesia
[2]; 10 mg/kg i.p., cisplatin-treated mice
  time after first dose at which effect on mechanical allodynia was first detected: 24 h
[2]; 10 mg/kg, without cisplatin
  mechanical sensitivity, compound alone: did not alter mechanical sensitivity
[2]; 7 daily doses of 10 mg/kg
  time after last dose until which beneficial effect on mechanical hyperalgesia was maintained: 4 days
[2]; administered i.p. one hour prior to each dose of cisplatin
  prevention of development of mechanical hyperalgesia: prevented the development of mechanical hyperalgesia
[2]; second round of 7 daily injections, 10 mg/kg, after 7 days rest
  effect of second round of treatment on mechanical hyperalgesia: transiently reversed cisplatin-induced mechanical hyperalgesia
[3]; [4]
  mitochondrial respiration (basal, ATP-linked, proton leak, maximal) in tibial nerves: normalized all aspects of the cisplatin-induced decrease in mitochondrial respiration
  non-mitochondrial respiration in tibial nerves: not altered
[3]; without cisplatin
  mitochondrial bioenergetics, compound alone: did not have any effect on mitochondrial bioenergetics
